Test results published in PMC5424495.

How the values were obtained:
[1] = same transimination equilibrium: L1 (bis-hexylimine calix[4]arene) + diamine 3 = C1 + 2 hexylamine; details: the molecule shown is the open-chain precursor, CD3CN, 2.5 mM, 25.0 °C, 2 steps
[2] = reversible transimination ring closure of 1,3-distal diimine cone-calix[4]arene (tetrakis(2-ethoxyethoxy)) with alpha,omega-diaminoalkanes H2N(CH2)nNH2, displacing hexylamine chain stopper; no catalyst; thermodynamic equilibrium in dynamic library; details: the molecule shown is the open-chain precursor, CD3CN, 2.5 mM, 25.0 °C

CCCCCC/N=C/c1cc2c(OCCOCC)c(c1)Cc1cccc(c1OCCOCC)Cc1cc(/C=N/CCCN)cc(c1OCCOCC)Cc1cccc(c1OCCOCC)C2 [C1b (diamine 3b, n=3)]
ring closure, K ([1]; 18-membered ring): 0.9 M | ring closure, effective molarity ([2]; 18-membered ring): 0.5 M

CCCCCC/N=C/c1cc2c(OCCOCC)c(c1)Cc1cccc(c1OCCOCC)Cc1cc(/C=N/CCCCCCN)cc(c1OCCOCC)Cc1cccc(c1OCCOCC)C2 [C1e (diamine 3e, n=6)]
ring closure, K ([1]; 21-membered ring): 0.026 M | ring closure, effective molarity ([2]; 21-membered ring): 0.01 M

CCCCCC/N=C/c1cc2c(OCCOCC)c(c1)Cc1cccc(c1OCCOCC)Cc1cc(/C=N/CCCCCN)cc(c1OCCOCC)Cc1cccc(c1OCCOCC)C2 [C1d (diamine 3d, n=5)]
ring closure, K ([1]; 20-membered ring): 3 M | ring closure, effective molarity ([2]; 20-membered ring): 1.5 M

CCCCCC/N=C/c1cc2c(OCCOCC)c(c1)Cc1cccc(c1OCCOCC)Cc1cc(/C=N/CCN)cc(c1OCCOCC)Cc1cccc(c1OCCOCC)C2 [C1a (diamine 3a, n=2)]
ring closure, K ([1]; 17-membered ring): 0.025 M | ring closure, effective molarity ([2]; 17-membered ring): 0.05 M

CCCCCC/N=C/c1cc2c(OCCOCC)c(c1)Cc1cccc(c1OCCOCC)Cc1cc(/C=N/CCCCN)cc(c1OCCOCC)Cc1cccc(c1OCCOCC)C2 [C1c (diamine 3c, n=4)]
ring closure, K ([1]; 19-membered ring): 0.03 M | ring closure, effective molarity ([2]; 19-membered ring): 0.01 M
